From patent publication US7514426B2, “Substituted imidazol[1,5-A][1,2,4]triazolo[1,5-D][1,4]benzodiazepine derivatives” (priority 2004, dated 2009) come the findings set out here.

Common to all, as to experiment: [3H]flumazenil competition binding, HEK293 cell membranes
Test [1] has as its target T1, human GABA A receptor α3β3γ2 (Homo sapiens, UniProt P18507+P34903).
T1 construct: expressed in transfected cells; host or cells: HEK293
The procedure:
(§1) The affinity of compounds at GABA A receptor subtypes was measured by competition for [^3H]flumazenil (85 Ci/mmol; Roche) binding to HEK293 cells expressing rat (stably transfected) or human (transiently transfected) receptors of composition α1β3γ2, α2β3γ2, α3β3γ2 and α5βγ2.
(§2) Cell pellets were suspended in Krebs-tris buffer (4.8 mM KCl, 1.2 mM CaCl2, 1.2 mM MgCl2, 120 mM NaCl, 15 mM Tris; pH 7.5; binding assay buffer), homogenized by polytron for ca. 20 sec on ice and centrifuged for 60 min at 4° C. (50000 g; Sorvall, rotor: SM24=20000 rpm). The cell pellets were resuspended in Krebs-tris buffer and homogenized by polytron for ca. 15 sec on ice. Protein was measured (Bradford method, Bio-Rad) and aliquots of 1 mL were prepared and stored at −80° C.
(§3) Radioligand binding assays were carried out in a volume of 200 μL (96-well plates) which contained 100 μL of cell membranes, [^3H]flumazenil at a concentration of 1 nM for α1, α2, α3 subunits and 0.5 nM for α5 subunits and the test compound in the range of 10^−10-3×10^−6 M. Nonspecific binding was defined by 10^−5 M diazepam and typically represented less than 5% of the total binding. Assays were incubated to equilibrium for 1 hour at 4° C. and harvested onto GF/C uni-filters (Packard) by filtration using a Packard harvester and washing with ice-cold wash buffer (50 mM Tris; pH 7.5). After drying, filter-retained radioactivity was detected by liquid scintillation counting. Ki values were calculated using Excel-Fit (Microsoft) and are the means of two determinations.

Test [2] deals with T2, human GABA A receptor α5βγ2 (Homo sapiens, UniProt P18507+P31644).
T2 construct: expressed in transfected cells; host or cells: HEK293
The procedure:
as §1, §2, §3

Test [3] has as its target T3, human GABA A receptor α1β3γ2 (Homo sapiens, UniProt P14867+P18507).
T3 construct: expressed in transfected cells; host or cells: HEK293
The procedure: as §1, §2, §3

Test [4] has as its target T4, human GABA A receptor α2β3γ2 (Homo sapiens, UniProt P18507+P47869).
T4 construct: expressed in transfected cells; host or cells: HEK293
The procedure: as §1, §2, §3

Where [5] appears, read: human α3β3γ2, transiently transfected HEK293, 1 nM [3H]flumazenil, mean of two determinations, read-out: Ki[nM] hα3.
Where [6] appears, read: human α1β3γ2, transiently transfected HEK293, 1 nM [3H]flumazenil, mean of two determinations, read-out: Ki[nM] hα1.
The mark [7] stands for this setting: human α2β3γ2, transiently transfected HEK293, 1 nM [3H]flumazenil, mean of two determinations, read-out: Ki[nM] hα2.
The mark [8] stands for this setting: human α5βγ2, transiently transfected HEK293, 0.5 nM [3H]flumazenil, mean of two determinations, read-out: Ki[nM] hα5.

Where two headings read alike, the source gives them in different places.

The Ki is the dissociation constant of the complex between target and ligand, obtained from inhibition or displacement. In the case of `FC(F)c1ncn2c1Cn1ncnc1-c1cc(C3CC3)ccc1-2` [Example 9, 3-Cyclopropyl-10-difluoromethyl-9H-imidazo[1,5-a][1,2,4]triazolo[1,5-d][1,4]benzodiazepine], the Ki in test [1] (setting [5]) amounted to 192 nM; in test [2], 13.3 nM; in test [3] (setting [6]), 216 nM; in test [4] (setting [7]), 160 nM.

With `CCC(F)c1ncn2c1Cn1ncnc1-c1cc(Br)ccc1-2` (stereo not drawn) [Example 18, 3-Bromo-10-(1-fluoro-propyl)-9H-imidazo[1,5-a][1,2,4]triazolo[1,5-d][1,4]benzodiazepine], the Ki turned out to be 650 nM in test [1] (setting [5]), 37.5 nM in test [2], 787 nM in test [3] (setting [6]) and 764 nM in test [4] (setting [7]).

Regarding `FCc1ncn2c1Cn1ncnc1-c1cc(C3CC3)ccc1-2` [Example 8, 3-Cyclopropyl-10-fluoromethyl-9H-imidazo[1,5-a][1,2,4]triazolo[1,5-d][1,4]benzodiazepine], the Ki was 270 nM in test [1], 14.7 nM in test [2], 272 nM in test [3] and 276 nM in test [4].

On to `FC(F)c1ncn2c1Cn1ncnc1-c1cc(N3CCOCC3)ccc1-2` [Example 17, 3-Morpholin-4-yl-10-difluoromethyl-9H-imidazo[1,5-a][1,2,4]triazolo[1,5-d][1,4]benzodiazepine], for which the Ki in test [1] (setting [5]) is above 3160 nM; in test [2] (setting [8]), 272 nM; in test [3] (setting [6]), 1870 nM; in test [4] (setting [7]), above 3160 nM.

As for `CC(F)(F)c1ncn2c1Cn1ncnc1-c1cc(F)ccc1-2` [Example 14, 10-(1,1-Difluoro-ethyl)-3-fluoro-9H-imidazo[1,5-a][1,2,4]triazolo[1,5-d][1,4]benzodiazepine], the Ki in test [1] worked out at 73.5 nM; in test [2], 26.6 nM; in test [3] (setting [6]), 163 nM; in test [4], 98.8 nM.

For the compound `C#Cc1ccc2c(c1)-c1ncnn1Cc1c(C(F)F)ncn1-2` [Example 12, 10-Difluoromethyl-3-ethynyl-9H-imidazo[1,5-a][1,2,4]triazolo[1,5-d][1,4]benzodiazepine], the Ki in test [1] (setting [5]) came to 512 nM; in test [2], 16.9 nM; in test [3] (setting [6]) it was 1460 nM; in test [4] (setting [7]), 416 nM.

Take `FC(F)c1ncn2c1Cn1ncnc1-c1cc(Br)ccc1-2` [Example 7, 3-Bromo-10-difluoromethyl-9H-imidazo[1,5-a][1,2,4]triazolo[1,5-d][1,4]benzodiazepine]: the Ki worked out at 79.6 nM in test [1] (setting [5]), 4.6 nM in test [2] (setting [8]), 174 nM in test [3] (setting [6]) and 185 nM in test [4] (setting [7]).

As to `Fc1ccc2c(c1)-c1ncnn1Cc1c(C(F)F)ncn1-2` [Example 4, 3-Fluoro-10-difluoromethyl-9H-imidazo[1,5-a][1,2,4]triazolo[1,5-d][1,4]benzodiazepine], the Ki in test [1] was found to be 15.6 nM; in test [2], 6.8 nM; in test [3], 34.4 nM; in test [4] it was 14.4 nM.

On to `FC(F)c1ncn2c1Cn1ncnc1-c1ccccc1-2` [Example 16, 10-Difluoromethyl-9H-imidazo[1,5-a][1,2,4]triazolo[1,5-d][1,4]benzodiazepine], for which the inhibition constant Ki in test [1] was found to be 10.5 nM; in test [2], 1.6 nM; in test [3] it was 28.3 nM; in test [4], 13.9 nM.

Take `N#Cc1ccc2c(c1)-c1ncnn1Cc1c(C(F)F)ncn1-2` [Example 13, 3-Cyano-10-difluoromethyl-9H-imidazo[1,5-a][1,2,4]triazolo[1,5-d][1,4]benzodiazepine]: the Ki amounted to 106 nM in test [1], 16.5 nM in test [2], 246 nM in test [3] and 246 nM in test [4].

Take `FC(F)c1ncn2c1Cn1ncnc1-c1cc(Cc3ccccc3)ccc1-2` [Example 11, 3-Benzyl-10-difluoromethyl-9H-imidazo[1,5-a][1,2,4]triazolo[1,5-d][1,4]benzodiazepine]: the inhibitory constant (Ki) in test [1] (setting [5]) is 488 nM; in test [2], 26.4 nM; in test [3] (setting [6]) it was 455 nM; in test [4] (setting [7]), 904 nM.

For `FCc1ncn2c1Cn1ncnc1-c1cc(Cl)ccc1-2` [Example 1, 3-Chloro-10-fluoromethyl-9H-imidazo[1,5-a][1,2,4]triazolo[1,5-d][1,4]benzodiazepine], the inhibition constant Ki in test [1] was found to be 40 nM; in test [2], 9.4 nM; in test [3] it was 59.1 nM; in test [4], 67 nM.

Consider `Fc1ccc2c(c1)-c1ncnn1Cc1c(C(F)(F)F)ncn1-2` [Example 5, 3-Fluoro-10-trifluoromethyl-9H-imidazo[1,5-a][1,2,4]triazolo[1,5-d][1,4]benzodiazepine], for which the Ki in test [1] was 27.7 nM; in test [2], 7 nM; in test [3], 39 nM; in test [4] it was 23.9 nM.

For the compound `FCc1ncn2c1Cn1ncnc1-c1cc(F)ccc1-2` [Example 3, 3-Fluoro-10-fluoromethyl-9H-imidazo[1,5-a][1,2,4]triazolo[1,5-d][1,4]benzodiazepine], the Ki in test [1] came out at 26.2 nM; in test [2] it was 9.1 nM; in test [3], 49.9 nM; in test [4], 25.4 nM.

`CCc1ccc2c(c1)-c1ncnn1Cc1c(C(F)F)ncn1-2` [Example 10, 10-Difluoromethyl-3-ethyl-9H-imidazo[1,5-a][1,2,4]triazolo[1,5-d][1,4]benzodiazepine]: the inhibition constant Ki in test [1] (setting [5]) was determined as 480 nM; in test [2], 31.7 nM; in test [3] (setting [6]) it was 272 nM; in test [4] (setting [7]) it was 624 nM.

With `FC(F)c1ncn2c1Cn1ncnc1-c1cc(Cl)ccc1-2` [Example 2, 3-Chloro-10-difluoromethyl-9H-imidazo[1,5-a][1,2,4]triazolo[1,5-d][1,4]benzodiazepine], the inhibitory constant (Ki) in test [1] amounted to 47.9 nM; in test [2], 5.6 nM; in test [3], 52.9 nM; in test [4] it was 81.3 nM.

With `CCC(F)(F)c1ncn2c1Cn1ncnc1-c1cc(F)ccc1-2` [Example 15, 10-(1,1-Difluoro-propyl)-3-fluoro-9H-imidazo[1,5-a][1,2,4]triazolo[1,5-d][1,4]benzodiazepine], the inhibitory constant (Ki) came out at 8.9 nM in test [1], 3.2 nM in test [2], 15 nM in test [3] and 11.3 nM in test [4].

On to `Cc1nc2n(n1)Cc1c(CF)ncn1-c1ccc(Cl)cc1-2` [Example 20, 3-Chloro-10-fluoromethyl-6-methyl-9H-imidazo[1,5-a][1,2,4]triazolo[1,5-d][1,4]benzodiazepine], for which the Ki in test [1] amounted to 117 nM; in test [2], 2.5 nM; in test [3], 50.1 nM; in test [4] it was 181 nM.

On to `CCC(F)(F)c1ncn2c1Cn1ncnc1-c1cc(Br)ccc1-2` [Example 19, 3-Bromo-10-(1,1-difluoro-propyl)-9H-imidazo[1,5-a][1,2,4]triazolo[1,5-d][1,4]benzodiazepine], for which the Ki in test [1] is 77.2 nM; in test [2] it was 6.4 nM; in test [3] it was 32.9 nM; in test [4] (setting [7]), 147 nM.

Consider `COc1ccc(-c2nc3n(n2)Cc2c(CF)ncn2-c2ccc(Cl)cc2-3)cc1OC` [Example 21, 3-Chloro-6-(3,4-dimethoxyphenyl)-10-fluoromethyl-9H-imidazo[1,5-a][1,2,4]triazolo[1,5-d][1,4]benzodiazepine], for which the Ki in test [1] (setting [5]) is above 3160 nM; in test [2] (setting [8]), 152 nM; in test [3] (setting [6]), above 3160 nM; in test [4] (setting [7]), above 3160 nM.

For the compound `FCc1ncn2c1Cn1ncnc1-c1cc(Br)ccc1-2` [Example 6, 3-Bromo-10-fluoromethyl-9H-imidazo[1,5-a][1,2,4]triazolo[1,5-d][1,4]benzodiazepine], the inhibition constant Ki in test [1] turned out to be 108 nM; in test [2], 8.7 nM; in test [3], 215 nM; in test [4], 261 nM.
